Data set [1] addresses T1, SAT from Salmonella enterica serovar Typhimurium (Salmonella typhimurium, UniProt P29847).
T1 construct: trxA (thioredoxin) fusion; made in house
As to the kind of experiment: StSAT enzyme activity assay (spectrophotometric indirect assay with Ellman's reagent). It counts as biochemical. The following applies: for inhibition at 1000 µM: compound at fixed 1 mM, both substrates equal to Km, 5% DMSO. The protocol: Since the primary structure of SAT is highly conserved among bacteria, [38] the virtual screening of our in-house library was performed using the available crystal structures of EcSAT (pdb code: 1T3D) and HiSAT (pdb code: 1SSM), setting the experimental parameters as previously reported by us. After this preliminary analysis, a total of 7 compounds were identified and selected to be evaluated on the recombinant enzyme from S. typhimurium. The enzyme used in these assays has a Km,Ser = 1.07 ± 0.15 mM, a Km,AcCoA = 0.17 ± 0.04 mM, kcat = 3813 ± 169 min^−1 [37].
SAT from Salmonella enterica serovar Typhimurium was expressed as trxA fusion protein as previously described and was more than 95% pure based on SDS-PAGE analysis. The enzyme activity was measured by a spectrophotometric indirect assay that exploits the signal at 412 nm generated by 5,5’-Dithiobis(2-nitrobenzoic acid (Ellmn’s reagent) reduction by the reaction product coenzyme A [37]. A total of 5% DMSO was present in all the assays and was proven not to perturb enzyme activity (data not shown). The concentration of substrates was set equal to Km in order to improve the sensitivity of the assay for both competitive and uncompetitive mechanism of inhibition. The dependence of the relative reaction rate on the concentration of compounds was fitted to Equation (1) to calculate the IC50: vi/v0=1/1+[I]/IC50
The inhibition mechanism was determined by fitting the dependence of the initial reaction rate on the concentration of acetyl CoA (at fixed, 1 mM L-Ser concentration) in the presence of different concentrations of inhibitor ( 1/3IC50≥[inhibitor]≤3IC50 ) to the equation for competitive, uncompetitive and non-competitive mechanisms. The equation that fits a competitive mechanism (Equation (2)) was used to calculate Ki for compound 5: v0=Vmax·[acetyl−CoA]/[acetyl−CoA]+(Km·α) where α=1+([comp5]/Ki) .
Background: DTNB colorimetry detects thiols as they appear.

Data set [2] deals with M. tuberculosis. Further details: method as in PMID 28749666. The following applies: cited from earlier work.
The nature of data set [3]: Chemical stability in DMSO solution by 1H NMR at different time points. It counts as physicochemical. The following applies: 5 mg in 500 μL DMSO-d6, room temperature. How it is done: Upon noticing changes in the appearance of the DMSO solution over time at room temperature, we deemed it of interest to investigate the chemical stability of the compounds. Therefore, in order to evaluate it, ^1H NMR analysis at different time points (1 h, 2.5 h, and 20 h) of the DMSO solution (5 mg in 500 μL of DMSO-d6) was performed (Supporting Information). Since the time required to observe changes in the colour of the solution was dependent of the substituent at position R2 of series 22, to establish the effect of the substituent on the overall stability of the compound, analogue 22a (R2 = phenyl) which contains the non-substituted phenyl group, analogue 22b (R2 = 3,5-dichlorophenyl), substituted with an EWG and analogue 22d (R2 = 3,5-dimethylphenyl) substituted with an electron donating group (EDG) were selected to perform the chemical stability studies. The stability of the compounds increases in the following order: 22b (stability in DMSO < 2.5 h) < 22a (stability in DMSO < 20 h) < 22d (stability in DMSO < 7 days). Thus, it is possible to conclude that EWGs like the simple phenyl or the phenyl replaced with two chlorines produce fewer stable molecules. On the other hand, the phenyl replaced with EDGs contributes to the overall stability of the molecule. It is hypothesised that the mild oxidative properties of DMSO are able to interfere with the oxazole scaffold, which leads to the opening of the ring and then full degradation of the compound in study.

Data set [4] concerns S. Typhimurium ATCC14028. As to the kind of experiment: Minimal Inhibitory Concentration (MIC) assay. It counts as cell-based.
For data set [5], the system named is E. coli ATCC25922. As to the kind of experiment: Minimal Inhibitory Concentration (MIC) assay. It counts as cell-based. The following applies: Escherichia coli; E. coli ATCC25922, Mueller Hinton broth (MHB).
For data set [6], the system named is StOASS. Further details: method as in PMID 26894308. The following applies: cited from earlier work.
Setting [7] is: Table 2, analogues of compound 5, * = estimated due to solubility issues, read-out: IC50.
[8] abbreviates: values as quoted in the SAR discussion text, read-out: IC50.
The mark [9] stands for this setting: Table 3, synthesised compounds, read-out: StSAT IC50.
Setting [10] is: StSAT IC50, Table 3, synthesised compounds.

Data on 30 compounds can be found in article PMC7931047, “Discovery of Substituted (2-Aminooxazol-4-yl)Isoxazole-3-carboxylic Acids as Inhibitors of Bacterial Serine Acetyltransferase in the Quest for Novel Potential Antibacterial Adjuvants” (Pharmaceuticals, 2021).

As a reminder, the inhibition is the percentage by which the read-out fell short of the control. As usually defined, the IC50 is the concentration at which inhibition is half-maximal. What is called Ki is a measure of affinity in units of concentration, obtained from inhibition or displacement. A low value points to tighter binding. Usually MIC stands for the smallest concentration in the dilution series that meets the test's criterion for growth inhibition.

“Also recorded” adds a separate entry of the source. Read-outs that look alike come from different tables or passages of the source. Some results are limits rather than exact numbers.

T1 sequence (P29847 whole entry, the tested form may be a part): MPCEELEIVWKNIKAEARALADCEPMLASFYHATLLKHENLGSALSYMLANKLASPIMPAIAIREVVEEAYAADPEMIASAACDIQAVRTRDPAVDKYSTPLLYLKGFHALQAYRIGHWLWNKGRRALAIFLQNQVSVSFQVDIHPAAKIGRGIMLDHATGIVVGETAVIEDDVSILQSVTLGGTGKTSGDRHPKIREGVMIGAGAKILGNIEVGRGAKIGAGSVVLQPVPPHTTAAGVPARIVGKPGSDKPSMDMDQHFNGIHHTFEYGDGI

For `Cc1ccc(C(=O)O)c(N)n1` [Compound 1], the inhibition at 1000 µM in data set [1] was 19.4 ± 1%.
The same measure, in the same setting: under `O=C(O)C1C2C=CC(C2)C1C(=O)O` (centres unmarked) [Compound 2] stands 34.9 ± 6%.
In data set [1], `CC1CN(C(=O)c2cc3ccccc3[nH]2)CC(C)N1` (centres unmarked) [Compound 3] displayed an inhibition at 1000 µM of 31.4 ± 5%.
Consider `CC(=O)NC(C(=O)O)C(=O)O` [Compound 4], for which the inhibition at 1000 µM in data set [1] is 18.7 ± 6%.
For `Cc1ccc(Nc2nc(-c3cc(C(=O)O)no3)cs2)cc1` [Compound 5], in data set [1] (Table 1, virtual screening hits, substrates equal to Km, read-out: IC50), the IC50 came to 0.11 mM. In data set [1] (competitive towards acetyl-CoA, fixed 1 mM L-Ser), this compound displayed an inhibition constant Ki of 64 ± 12 µM. The Mechanism result in data set [1] (inhibition mechanism, varied acetyl CoA at fixed 1 mM L-Ser) is “competitive inhibitor; also recorded: Competitive with AcCoA”. The “activity toward M. tuberculosis” value in data set [2] is “inactive”.
In data set [1], `CCn1c2ccccc2c2cc(CNC)ccc21` [Compound 6] showed an inhibition at 1000 µM of 23.6%.
On to `O=C(O)[C@H]1C[C@@H]1c1ccccc1` [Compound 7], for which, in data set [1], the inhibition at 1000 µM was > 40%. In data set [1] (virtual screening hit, value printed in mM (μM), read-out: IC50), the IC50 is > 2 mM.
Turning to `Cc1ccc(Nc2nc(-c3ccncc3)cs2)cc1` [Compound 8], in data set [1] (setting [7]), the concentration for half-maximal inhibition (IC50) is > 0.4 mM.
On the same count and under the same terms, the same measure for `COc1ccc(-c2cc(-c3csc(Nc4ccc(C)cc4)n3)on2)cc1` [Compound 9]: 0.012 ± 0.002 mM; for `Cc1ccc(Nc2nc(-c3cc(C(=O)NC45CC6CC(CC(C6)C4)C5)no3)cs2)cc1` [Compound 10]: 0.009 ± 0.003 mM.
For `Cc1ccc(Nc2nc(-c3cc(C(N)=O)no3)cs2)cc1` [Compound 11], in data set [1] (setting [7]), the IC50 was 0.026 ± 0.004 mM.
For the compound `CNC(=O)c1cc(-c2csc(Nc3ccc(C)cc3)n2)on1` [Compound 12], the IC50 in data set [1] (setting [8]) amounted to 0.06 mM.
As for `Cc1ccc(Nc2nc(-c3cc(C(=O)Nc4ccccc4)no3)cs2)cc1` [Compound 13], the results for the IC50 in data set [1] (setting [7]) and in data set [1] (setting [8]) were 0.016 ± 0.003 mM and 0.0163 mM, respectively.
The matching figures for `CCOC(=O)c1cc(-c2csc(Nc3ccc(C)cc3)n2)on1` [Compound 14]: ~0.01 mM and 0.01 mM.
Regarding `CCOC(=O)c1cc(-c2csc(Nc3cc(Cl)cc(Cl)c3)n2)on1` [Compound 15], the IC50 in data set [1] (setting [7]) was 0.018 ± 0.002 mM.
In the case of `Cc1ccc(Nc2nc(-c3cc(C(=O)O)nn3C)cs2)cc1` [Compound 16], the IC50 in data set [1] (setting [7]) was 0.184 ± 0.013 mM.
Same read-out and setting: the same measure for `Cn1nc(C(=O)O)cc1-c1csc(Nc2cc(Cl)cc(Cl)c2)n1` [Compound 17]: 0.021 ± 0.005 mM.
As to `Cc1ccc(Nc2nc(-c3cc(C(=O)O)no3)co2)cc1` [Compound 18], the “improvement in the affinity compared to the 2-aminothiazole counterpart” value in data set [1] (18 vs. 5, from IC50) was > 40 fold. For the same compound, the IC50 in data set [1] (setting [8]) amounted to 0.0026 mM.
Consider `CCOC(=O)c1cc(-c2coc(Nc3ccc(C)cc3)n2)on1` [Compound 19], for which the half-maximal inhibitory concentration (IC50) in data set [1] (setting [7]) is 0.007 ± 0.002 mM; in data set [1] (setting [8]) it was 0.0073 mM.
As for `O=C(O)c1cc(-c2csc(Nc3cc(Cl)cc(Cl)c3)n2)on1` [Compound 20], the IC50 in data set [1] (setting [7]) is 0.011 ± 0.001 mM.
`CCOC(=O)c1cc(-c2coc(Nc3ccccc3)n2)on1` [Compound 21a, Ethyl 5-(2-(phenylamino)oxazol-4-yl)isoxazole-3-carboxylate]: in data set [1] (setting [9]), the half-maximal inhibitory concentration (IC50) turned out to be 0.00268 ± 0.00027 mM.
`CCOC(=O)c1cc(-c2coc(Nc3cc(Cl)cc(Cl)c3)n2)on1` [Compound 21b, Ethyl 5-(2-((3,5-dichlorophenyl)amino)oxazol-4-yl)isoxazole-3-carboxylate]: the IC50 in data set [1] (setting [9]) was found to be 0.00252 ± 3e-05 mM.
The same measure, in the same setting: under `CCOC(=O)c1cc(-c2coc(Nc3ccc(F)cc3)n2)on1` [Compound 21c, Ethyl 5-(2-((4-fluorophenyl)amino)oxazol-4-yl)isoxazole-3-carboxylate] stands 0.00304 ± 0.00037 mM.
Take `CCOC(=O)c1cc(-c2coc(Nc3ccncc3)n2)on1` [Compound 21e, Ethyl 5-(2-(pyridin-4-ylamino)oxazol-4-yl)isoxazole-3-carboxylate]: in data set [1] (setting [9]), the IC50 is 0.00395 ± 0.00065 mM.
Take `O=C(O)c1cc(-c2coc(Nc3ccccc3)n2)on1` [Compound 22a, 5-(2-(phenylamino)oxazol-4-yl)isoxazole-3-carboxylic acid]: in data set [1] (setting [10]), half-maximal inhibition (IC50) required 0.00154 ± 0.00033 mM. Moreover, the “stability in DMSO” value in data set [3] is listed as < 20 h.
The matching figures for `O=C(O)c1cc(-c2coc(Nc3cc(Cl)cc(Cl)c3)n2)on1` [Compound 22b, 5-(2-((3,5-dichlorophenyl)amino)oxazol-4-yl)isoxazole-3-carboxylic acid]: 0.00803 ± 0.00018 mM and < 2.5 h.
Consider `O=C(O)c1cc(-c2coc(Nc3ccc(F)cc3)n2)on1` [Compound 22c, 5-(2-((4-fluorophenyl)amino)oxazol-4-yl)isoxazole-3-carboxylic acid], for which, in data set [1] (setting [9]), the IC50 was found to be 0.00251 ± 0.00034 mM.
Consider `Cc1cc(C)cc(Nc2nc(-c3cc(C(=O)O)no3)co2)c1` [Compound 22d, 5-(2-((3,5-dimethylphenyl)amino)oxazol-4-yl)isoxazole-3-carboxylic acid], for which the IC50 in data set [1] (setting [9]) was 0.00424 ± 0.00011 mM. Further, the “stability in DMSO” value in data set [3] was < 170 h. Also, the minimum inhibitory concentration (MIC) in data set [4] (S. Typhimurium ATCC14028, M9 medium deprived of cysteine) is > 128 µM; in data set [4] (Salmonella enterica, S. Typhimurium ATCC14028, Mueller Hinton broth (MHB)), > 128 µM; in data set [5] it was > 128 µM.
Take `O=C(O)c1cc(-c2coc(Nc3ccncc3)n2)on1` [Compound 22e, 5-(2-(pyridin-4-ylamino)oxazol-4-yl)isoxazole-3-carboxylic acid]: the IC50 in data set [1] (setting [9]) came to 0.012 ± 0.00125 mM.
In the case of `Cc1ccc(CC2(C(=O)O)CC2c2ccccc2)cc1` (centres unmarked) [UPAR415], the “mechanism of OASS inhibition” value in data set [6] was “competitive inhibitor”.
